Experimental data from PubChem BioAssay (NCI).
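Five compound concentrations were applied to cells in 96-well plates for 48 hours; endpoints were derived by simple linear interpolation of the resulting dose-response curve. GI50 is the concentration that inhibits growth by half. TGI is the concentration that stops growth completely.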

Tests used:
Test in all cases: NCI tumour cell line growth inhibition, 48 h
NCI/ADR-RES ovarian = tested on: NCI/ADR-RES ovarian
HOP-18 NSCLC = tested on: HOP-18 NSCLC
DMS 114 small cell lung = tested on: DMS 114 small cell lung
XF 498 CNS = tested on: XF 498 CNS
MDA-MB-435 = tested on: MDA-MB-435
M19-MEL melanoma = tested on: M19-MEL melanoma
NCI-H522 lung = tested on: NCI-H522 lung
OVCAR-4 ovarian = tested on: OVCAR-4 ovarian
SNB-78 CNS = tested on: SNB-78 CNS
SK-MEL-28 melanoma = tested on: SK-MEL-28 melanoma
LOX IMVI melanoma = tested on: LOX IMVI melanoma
SF-295 CNS = tested on: SF-295 CNS
RPMI-8226 leukemia = tested on: RPMI-8226 leukemia
OVCAR-3 ovarian = tested on: OVCAR-3 ovarian
OVCAR-5 ovarian = tested on: OVCAR-5 ovarian
SK-MEL-2 melanoma = tested on: SK-MEL-2 melanoma
BT-549 breast = tested on: BT-549 breast
NCI-H23 lung = tested on: NCI-H23 lung
M14 melanoma = tested on: M14 melanoma
K-562 leukemia = tested on: K-562 leukemia
HCT-15 colon = tested on: HCT-15 colon
SN12C renal = tested on: SN12C renal
MALME-3M melanoma = tested on: MALME-3M melanoma
U251 CNS = tested on: U251 CNS
TK-10 renal = tested on: TK-10 renal
RXF-631 renal = tested on: RXF-631 renal
KM12 colon = tested on: KM12 colon
HL-60(TB) leukemia = tested on: HL-60(TB) leukemia
A549 NSCLC = tested on: A549 NSCLC
NCI-H460 lung = tested on: NCI-H460 lung
PC-3 prostate = tested on: PC-3 prostate
COLO 205 colon = tested on: COLO 205 colon
SNB-19 CNS = tested on: SNB-19 CNS
SNB-75 CNS = tested on: SNB-75 CNS
MOLT-4 leukemia = tested on: MOLT-4 leukemia
SK-MEL-5 melanoma = tested on: SK-MEL-5 melanoma
SR leukemia = tested on: SR leukemia
HOP-92 NSCLC = tested on: HOP-92 NSCLC
T-47D breast = tested on: T-47D breast
NCI-H226 lung = tested on: NCI-H226 lung
MDA-MB-231 breast = tested on: MDA-MB-231 breast
SF-539 CNS = tested on: SF-539 CNS
KM20L2 colon = tested on: KM20L2 colon
ACHN renal = tested on: ACHN renal
UACC-257 melanoma = tested on: UACC-257 melanoma
HS 578T breast = tested on: HS 578T breast
RXF 393 renal = tested on: RXF 393 renal
LXFL 529 NSCLC = tested on: LXFL 529 NSCLC
UO-31 renal = tested on: UO-31 renal
UACC-62 melanoma = tested on: UACC-62 melanoma
SK-OV-3 ovarian = tested on: SK-OV-3 ovarian
DU-145 prostate = tested on: DU-145 prostate
CCRF-CEM leukemia = tested on: CCRF-CEM leukemia
DLD-1 colon = tested on: DLD-1 colon
786-0 renal = tested on: 786-0 renal
HCT-116 colon = tested on: HCT-116 colon
MCF7 breast = tested on: MCF7 breast
DMS 273 small cell lung = tested on: DMS 273 small cell lung
OVCAR-8 ovarian = tested on: OVCAR-8 ovarian
HOP-62 NSCLC = tested on: HOP-62 NSCLC
SF-268 CNS = tested on: SF-268 CNS
A498 renal = tested on: A498 renal
HT29 colon = tested on: HT29 colon
EKVX NSCLC = tested on: EKVX NSCLC
SW-620 colon = tested on: SW-620 colon
HCC-2998 colon = tested on: HCC-2998 colon
CAKI-1 renal = tested on: CAKI-1 renal
IGROV1 ovarian = tested on: IGROV1 ovarian

Oc1ccc2c(c1)OCC1(O)Cc3cc(O)c(O)cc3C21 (stereo unspecified)
GI50 (NCI/ADR-RES ovarian): 29.6 µM
TGI (NCI/ADR-RES ovarian): 97.9 µM
TGI (HOP-18 NSCLC): 32.3 µM
TGI (DMS 114 small cell lung): 73.5 µM
TGI (XF 498 CNS): 28.8 µM
GI50 (MDA-MB-435): 14.8 µM
TGI (MDA-MB-435): 28.1 µM
TGI (M19-MEL melanoma): > 86 µM
TGI (NCI-H522 lung): 46.7 µM
TGI (OVCAR-4 ovarian): 35.3 µM
TGI (SNB-78 CNS): 20 µM
TGI (SK-MEL-28 melanoma): 32.2 µM
TGI (LOX IMVI melanoma): 37.2 µM
TGI (SF-295 CNS): > 68.3 µM
TGI (RPMI-8226 leukemia): 85.1 µM
TGI (OVCAR-3 ovarian): 30 µM
TGI (OVCAR-5 ovarian): 59.7 µM
TGI (SK-MEL-2 melanoma): 62.2 µM
GI50 (BT-549 breast): 14.8 µM
TGI (BT-549 breast): 28 µM
TGI (NCI-H23 lung): 33.4 µM
TGI (M14 melanoma): 36.2 µM
TGI (K-562 leukemia): > 82.6 µM
TGI (HCT-15 colon): 44.2 µM
TGI (SN12C renal): 51.1 µM
TGI (MALME-3M melanoma): 32.4 µM
TGI (U251 CNS): 39.9 µM
TGI (TK-10 renal): 31.2 µM
TGI (RXF-631 renal): > 77.3 µM
TGI (KM12 colon): 69.2 µM
TGI (HL-60(TB) leukemia): 78.3 µM
TGI (A549 NSCLC): > 74.6 µM
TGI (NCI-H460 lung): 37.2 µM
GI50 (PC-3 prostate): 18.1 µM
TGI (PC-3 prostate): 39.4 µM
TGI (COLO 205 colon): 45.4 µM
TGI (SNB-19 CNS): 73 µM
TGI (SNB-75 CNS): 67.8 µM
TGI (MOLT-4 leukemia): 72.9 µM
TGI (SK-MEL-5 melanoma): 34.2 µM
TGI (SR leukemia): 99.3 µM
TGI (HOP-92 NSCLC): 37.6 µM
GI50 (T-47D breast): 19.6 µM
TGI (T-47D breast): 54.4 µM
TGI (NCI-H226 lung): > 65.2 µM
GI50 (MDA-MB-231 breast): 13 µM
TGI (MDA-MB-231 breast): 26 µM
TGI (SF-539 CNS): 36.8 µM
TGI (KM20L2 colon): > 63 µM
TGI (ACHN renal): 32.7 µM
TGI (UACC-257 melanoma): 34.4 µM
GI50 (HS 578T breast): 20.4 µM
TGI (HS 578T breast): 46.9 µM
TGI (RXF 393 renal): 29.7 µM
TGI (LXFL 529 NSCLC): 34 µM
TGI (UO-31 renal): > 100 µM
TGI (UACC-62 melanoma): 41.9 µM
TGI (SK-OV-3 ovarian): > 79.5 µM
GI50 (DU-145 prostate): 10.7 µM
TGI (DU-145 prostate): 22.5 µM
TGI (CCRF-CEM leukemia): 82.8 µM
TGI (DLD-1 colon): 33.9 µM
TGI (786-0 renal): 34.9 µM
TGI (HCT-116 colon): 42.4 µM
GI50 (MCF7 breast): 18.4 µM
TGI (MCF7 breast): 36 µM
TGI (DMS 273 small cell lung): > 100 µM
TGI (OVCAR-8 ovarian): 44.2 µM
TGI (HOP-62 NSCLC): > 73.6 µM
TGI (SF-268 CNS): > 68.2 µM
TGI (A498 renal): 39 µM
TGI (HT29 colon): 46.5 µM
TGI (EKVX NSCLC): 45.9 µM
TGI (SW-620 colon): 40.5 µM
TGI (HCC-2998 colon): 36 µM
TGI (CAKI-1 renal): 32.8 µM
TGI (IGROV1 ovarian): > 73.6 µM

CCCCCCCCCCCCC(CC)CCCCC(=O)O (stereo unspecified)
TGI (HOP-18 NSCLC): > 100 µM
TGI (DMS 114 small cell lung): > 100 µM
TGI (XF 498 CNS): > 100 µM
TGI (M19-MEL melanoma): > 100 µM
TGI (NCI-H522 lung): > 100 µM
TGI (OVCAR-4 ovarian): > 100 µM
TGI (SNB-78 CNS): > 100 µM
TGI (SK-MEL-28 melanoma): > 100 µM
TGI (LOX IMVI melanoma): > 100 µM
TGI (SF-295 CNS): > 100 µM
TGI (RPMI-8226 leukemia): > 100 µM
TGI (OVCAR-3 ovarian): > 100 µM
TGI (OVCAR-5 ovarian): > 100 µM
TGI (SK-MEL-2 melanoma): > 100 µM
TGI (NCI-H23 lung): > 100 µM
TGI (M14 melanoma): > 100 µM
TGI (K-562 leukemia): > 100 µM
TGI (HCT-15 colon): > 100 µM
TGI (SN12C renal): > 100 µM
TGI (MALME-3M melanoma): > 100 µM
TGI (U251 CNS): > 67.8 µM
TGI (TK-10 renal): > 100 µM
TGI (RXF-631 renal): > 100 µM
TGI (KM12 colon): > 100 µM
TGI (HL-60(TB) leukemia): > 90.4 µM
TGI (A549 NSCLC): > 100 µM
TGI (NCI-H460 lung): > 100 µM
TGI (COLO 205 colon): > 100 µM
TGI (SNB-19 CNS): > 100 µM
TGI (SNB-75 CNS): > 100 µM
TGI (MOLT-4 leukemia): 69.7 µM
TGI (SK-MEL-5 melanoma): > 100 µM
TGI (SR leukemia): > 100 µM
TGI (HOP-92 NSCLC): > 100 µM
TGI (NCI-H226 lung): > 100 µM
TGI (SF-539 CNS): > 59.2 µM
TGI (KM20L2 colon): > 100 µM
TGI (ACHN renal): > 100 µM
TGI (UACC-257 melanoma): > 100 µM
TGI (RXF 393 renal): > 86.8 µM
TGI (LXFL 529 NSCLC): > 100 µM
TGI (UO-31 renal): > 100 µM
TGI (UACC-62 melanoma): > 100 µM
TGI (SK-OV-3 ovarian): > 100 µM
TGI (CCRF-CEM leukemia): 67.6 µM
TGI (DLD-1 colon): > 100 µM
TGI (786-0 renal): > 100 µM
TGI (HCT-116 colon): > 100 µM
TGI (DMS 273 small cell lung): > 100 µM
TGI (OVCAR-8 ovarian): > 100 µM
TGI (HOP-62 NSCLC): > 100 µM
TGI (SF-268 CNS): > 100 µM
TGI (A498 renal): > 100 µM
TGI (HT29 colon): > 100 µM
TGI (EKVX NSCLC): > 100 µM
TGI (SW-620 colon): > 100 µM
TGI (HCC-2998 colon): > 100 µM
TGI (CAKI-1 renal): > 100 µM
TGI (IGROV1 ovarian): > 100 µM
